Source: patent publication US20230364119A1, “AUTOPHAGY ACTIVATOR” (Resonac Corporation, priority 2020, published 2023)

Assays:
[1] = tested on: human neuroblastoma (SH-SY5Y); assay: Apoptosis suppressing action caused by amyloid β in human neuroblastoma (Hoechst 33342 staining); type: cell-based
Method: The proportion of apoptotic cells in human neuroblastoma (SH-SY5Y; obtained from ATCC) in the presence of an autophagy activator was measured by the following test method to evaluate the apoptosis suppressing action of the autophagy activator.
In the following examples and comparative examples, tests were performed by adding amyloid β, which is known to induce cell death called apoptosis of nerve cells due to a decrease in autophagy, to each medium.
SH-SY5Y cells were prepared at a seeding density of 50000 cells/cm^2 and cultured for 24 hours in D-MEM medium/Ham's F-12 medium (manufactured by Sigma-Aldrich) to which 10% fetal bovine serum (manufactured by MP Biomedicals) was added. […]
Thereafter, an aqueous solution of 10 μM Hoechst 33342 (manufactured by Sigma-Aldrich) was added to each SH-SY5Y cell from which the medium was removed, and the cells were allowed to stand at room temperature (25° C.) for 10 minutes. After removing the solution, each SH-SY5Y cell was washed with phosphate buffer (PBS, manufactured by FUJIFILM Wako Pure Chemical Corporation), and with a fluorescence microscope, the number of cells showing strong apoptosis-like Hoechst fluorescence due to chromatin aggregation (Hoechst (+) cells) was counted. […] For each example, relative values were calculated when the proportion of apoptotic cells in Reference Example 4 was set to 1.00, and the results are shown in Table 7.

ATG5 gene = ATG5 gene expression promoting effect in human senescent fibroblasts (quantitative real-time PCR); type: cell-based
Method: Senescent fibroblasts were prepared by the following procedure.
Normal human fibroblasts (NB1RGB, RIKEN BRC Cell Bank) were cultured until confluent in D-MEM medium (manufactured by Sigma-Aldrich) to which 10% fetal bovine serum (manufactured by MP Biomedicals) was added. Thereafter, the cells were treated with 250 μM aqueous hydrogen peroxide for 2 hours, and cultured for 24 hours in D-MEM medium to which fresh 10% fetal bovine serum was added. The treatment with aqueous hydrogen peroxide and the cell culture operation were repeated three times, and the obtained fibroblasts were used as senescent fibroblasts.
The prepared senescent fibroblasts were prepared at a seeding density of 10000 cells/cm^2 and cultured for 24 hours in D-MEM medium (manufactured by Sigma-Aldrich) to which 10% fetal bovine serum (manufactured by MP Biomedicals) was added. […]
Then, using Nucleospin (registered trademark) RNA kit (manufactured by Takara Bio Inc.), RNA was extracted from senescent fibroblasts or normal human fibroblasts in each example, and cDNA was synthesized from the obtained RNA. Next, using this cDNA as a template, by quantitative real-time PCR, the expression level of each gene was quantified using primers (manufactured by Takara Bio Inc.) specific to the LC3 gene, ATG5 gene, and Beclin 1 gene, respectively. […]

## O[C@H]1[C@H](O)[C@@H](O)[C@H](O)[C@@H](O)[C@H]1O [Comparative Example 2, myo-inositol]
[1]; SH-SY5Y cells with amyloid β, compared to Comparative Example 7 (purified water and amyloid β)
  proportion of apoptotic cells, in words: almost the same
[1]; SH-SY5Y cells, 30 μM amyloid β present, 48 hours, 10^−3% (V/V) inositol or inositol derivative A, with the vitamin derivative of the example where added, relative value, Reference Example 4 (purified water, no amyloid β) = 1.00
  Proportion of apoptotic cells: 3.98
ATG5 gene; 24 hours, 10^−3% (V/V) inositol or inositol derivative A, with the vitamin derivative of the example where added, GAPDH-standardized, Comparative Example 1 (purified water) = 1.00
  Relative gene expression level ATG5: 1.21
ATG5 gene; compared to Comparative Example 1 (purified water only)
  expression level of the ATG5 gene, in words: more increased
